What was measured:
Type in all cases: cell-based
[1] = tested on: 4th stage larvae (L4) of Dirofilaria immitis; test: Dirofilaria immitis, L4 Stage (DiL4) In Vitro Assay; conditions: Dirofilaria immitis, 72 h, read-out: DiL4 Minimum Effective Dose (MED), approximately 72 hours incubation; L4 larvae assessed for survival or paralysis
[2] = tested on: third stage larvae of Haemonchus contortus; test: Haemonchus contortus L3 (HcL3) Assay; conditions: 96 h, read-out: HcL3 Minimum Effective Dose (MED)
[3] = tested on: microfilariae of Dirofilaria immitis; test: Dirofilaria immitis, Microfilaria (DiMF) In vitro Assay; conditions: 72 h, read-out: DiMF Minimum Effective Dose (MED), approximately 72 hours incubation, microfilariae assessed for survival or paralysis

SMILES	minimal effective concentration [1] [µM]	minimal effective concentration [2] [µM]	minimal effective concentration [3] [µM]
CCOc1ccn(Cc2ccc(C[C@H]3OC(=O)[C@H](CC(C)C)N(C)C(=O)[C@@H](C)OC(=O)[C@H](CC(C)C)N(C)C(=O)[C@@H](Cc4ccc(Cn5nccc5OCC)cc4)OC(=O)[C@H](CC(C)C)N(C)C(=O)[C@@H](C)OC(=O)[C@H](CC(C)C)N(C)C3=O)cc2)n1 [Example 1a-36, (3S,6R,9S,12R,15S,18R,21S,24R)-6-(4-((3-ethoxy-1H-pyrazol-1-yl)methyl)benzyl)-18-(4-((5-ethoxy-1H-pyrazol-1-yl)methyl)benzyl)-3,9,15,21-tetraisobutyl-4,10,12,16,22,24-hexamethyl-1,7,13,19-tetraoxa-4,10,16,22-tetraazacyclotetracosan-2,5,8,11,14,17,20,23-octaone]	0.0001 to 0.001	1 to 10	
COCc1ccn(Cc2ccc(C[C@H]3OC(=O)[C@H](CC(C)C)N(C)C(=O)[C@@H](C)OC(=O)[C@H](CC(C)C)N(C)C(=O)[C@@H](Cc4ccc(Cn5nccc5COC)cc4)OC(=O)[C@H](CC(C)C)N(C)C(=O)[C@@H](C)OC(=O)[C@H](CC(C)C)N(C)C3=O)cc2)n1 [Example 1a-37, (3S,6R,9S,12R,15S,18R,21S,24R)-3,9,15,21-tetraisobutyl-6-(4-((3-(methoxymethyl)-1H-pyrazol-1-yl)methyl)benzyl)-18-(4-((5-(methoxymethyl)-1H-pyrazol-1-yl)methyl)benzyl)-4,10,12,16,22,24-hexamethyl-1,7,13,19-tetraoxa-4,10,16,22-tetraazacyclotetracosan-2,5,8,11,14,17,20,23-octaone]	0.0001 to 0.001	1 to 10	
Cc1nn(Cc2ccc(C[C@H]3OC(=O)[C@H](CC(C)C)N(C)C(=O)[C@@H](C)OC(=O)[C@H](CC(C)C)N(C)C(=O)[C@@H](Cc4ccc(Cn5nc(C)c(O)c5C)cc4)OC(=O)[C@H](CC(C)C)N(C)C(=O)[C@@H](C)OC(=O)[C@H](CC(C)C)N(C)C3=O)cc2)c(C)c1O [Example 1b-16, (3S,6R,9S,12R,15S,18R,21S,24R)-6,18-bis({4-[(4-hydroxy-3,5-dimethyl-1H-pyrazol-1-yl)methyl]phenyl}methyl)-4,10,12,16,22,24-hexamethyl-3,9,15,21-tetrakis(2-methylpropyl)-1,7,13,19-tetraoxa-4,10,16,22-tetraazacyclotetracosan-2,5,8,11,14,17,20,23-octaone]	0.0001 to 0.001	1 to 10	
CC(C)C[C@H]1C(=O)O[C@H](Cc2ccc(Cn3cc(F)cn3)cc2)C(=O)N(C)[C@@H](CC(C)C)C(=O)O[C@H](C)C(=O)N(C)[C@@H](CC(C)C)C(=O)O[C@H](Cc2ccc(Cn3cc(F)cn3)cc2)C(=O)N(C)[C@@H](CC(C)C)C(=O)O[C@H](C)C(=O)N1C [Example 1b-17, (3S,6R,9S,12R,15S,18R,21S,24R)-6,18-bis(4-((4-fluoro-1H-pyrazol-1-yl)methyl)benzyl)-3,9,15,21-tetraisobutyl-4,10,12,16,22,24-hexamethyl-1,7,13,19-tetraoxa-4,10,16,22-tetraazacyclotetracosan-2,5,8,11,14,17,20,23-octaone]	0.0001 to 0.001	1 to 10	
C#Cc1cnn(Cc2ccc(C[C@H]3OC(=O)[C@H](CC(C)C)N(C)C(=O)[C@@H](C)OC(=O)[C@H](CC(C)C)N(C)C(=O)[C@@H](Cc4ccc(Cn5cc(C#C)cn5)cc4)OC(=O)[C@H](CC(C)C)N(C)C(=O)[C@@H](C)OC(=O)[C@H](CC(C)C)N(C)C3=O)cc2)c1 [Example 1b-32, (3S,6R,9S,12R,15S,18R,21S,24R)-6,18-bis({4-[(4-ethynyl-1H-pyrazol-1 yl)methyl]phenyl}methyl)-4,10,12,16,22,24-hexamethyl-3,9,15,21-tetrakis(2-methylpropyl)-1,7,13,19-tetraoxa-4,10,16,22-tetraazacyclotetracosan-2,5,8,11,14,17,20,23-octaone]	0.0001 to 0.001	10 to 100	
CC(C)C[C@H]1C(=O)O[C@H](Cc2ccc(Cn3nc(C#N)cc3C#N)cc2)C(=O)N(C)[C@@H](CC(C)C)C(=O)O[C@H](C)C(=O)N(C)[C@@H](CC(C)C)C(=O)O[C@H](Cc2ccc(Cn3nc(C#N)cc3C#N)cc2)C(=O)N(C)[C@@H](CC(C)C)C(=O)O[C@H](C)C(=O)N1C [Example 1b-66, 1,1′-(((((2R,5S,8R,11S,14R,17S,20R,23S)-5,11,17,23-tetraisobutyl-4,8,10,16,20,22-hexamethyl-3,6,9,12,15,18,21,24-octaoxo-1,7,13,19-tetraoxa-4,10,16,22-tetraazacyclotetracosane-2,14-diyl)bis(methylene))bis(4,1-phenylene))bis(methylene))bis(1H-pyrazole-3,5-dicarbonitrile)]	≤ 0.0001	≤ 1	
CC(C)C[C@H]1C(=O)O[C@H](Cc2ccc(Cn3cc(-c4ccncn4)cn3)cc2)C(=O)N(C)[C@@H](CC(C)C)C(=O)O[C@H](C)C(=O)N(C)[C@@H](CC(C)C)C(=O)O[C@H](Cc2ccc(Cn3cc(-c4ccncn4)cn3)cc2)C(=O)N(C)[C@@H](CC(C)C)C(=O)O[C@H](C)C(=O)N1C [Example 1b-86, (3S,6R,9S,12R,15S,18R,21S,24R)-3,9,15,21-tetraisobutyl-4,6,10,16,18,22-hexamethyl-12,24-bis(4-((4-(pyrimidin-4-yl)-1H-pyrazol-1-yl)methyl)benzyl)-1,7,13,19-tetraoxa-4,10,16,22-tetraazacyclotetracosan-2,5,8,11,14,17,20,23-octaone]	0.0001 to 0.001	10 to 100	
CC(C)C[C@H]1C(=O)O[C@H](Cc2ccc(Cn3ccc(Cl)n3)cc2)C(=O)N(C)[C@@H](CC(C)C)C(=O)O[C@H](C)C(=O)N(C)[C@@H](CC(C)C)C(=O)O[C@H](Cc2ccc(Cn3ccc(Cl)n3)cc2)C(=O)N(C)[C@@H](CC(C)C)C(=O)O[C@H](C)C(=O)N1C [Example 1b-96, (3S,6R,9S,12R,15S,18R,21S,24R)-6,18-bis(4-((3-chloro-1H-pyrazol-1-yl)methyl)benzyl)-3,9,15,21-tetraisobutyl-4,10,12,16,22,24-hexamethyl-1,7,13,19-tetraoxa-4,10,16,22-tetraazacyclotetracosan-2,5,8,11,14,17,20,23-octaone]	≤ 0.0001	≤ 1	
CCOc1ccn(Cc2ccc(C[C@H]3OC(=O)[C@H](CC(C)C)N(C)C(=O)[C@@H](C)OC(=O)[C@H](CC(C)C)N(C)C(=O)[C@@H](Cc4ccc(Cn5ccc(OCC)n5)cc4)OC(=O)[C@H](CC(C)C)N(C)C(=O)[C@@H](C)OC(=O)[C@H](CC(C)C)N(C)C3=O)cc2)n1 [Example 1b-104, (3S,6R,9S,12R,15S,18R,21S,24R)-6,18-bis(4-((3-ethoxy-1H-pyrazol-1-yl)methyl)benzyl)-3,9,15,21-tetraisobutyl-4,10,12,16,22,24-hexamethyl-1,7,13,19-tetraoxa-4,10,16,22-tetraazacyclotetracosan-2,5,8,11,14,17,20,23-octaone]	0.0001 to 0.001	≤ 1	
COc1ccn(Cc2ccc(C[C@H]3OC(=O)[C@H](CC(C)C)N(C)C(=O)[C@@H](C)OC(=O)[C@H](CC(C)C)N(C)C(=O)[C@@H](Cc4ccc(Cn5ccc(OC)n5)cc4)OC(=O)[C@H](CC(C)C)N(C)C(=O)[C@@H](C)OC(=O)[C@H](CC(C)C)N(C)C3=O)cc2)n1 [Example 1b-115, (3S,6R,9S,12R,15S,18R,21S,24R)-3,9,15,21-tetraisobutyl-6,18-bis(4-((3-methoxy-1H-pyrazol-1-yl)methyl)benzyl)-4,10,12,16,22,24-hexamethyl-1,7,13,19-tetraoxa-4,10,16,22-tetraazacyclotetracosan-2,5,8,11,14,17,20,23-octaone]	≤ 0.0001	≤ 1	
Cc1ccnn1Cc1ccc(C[C@H]2OC(=O)[C@H](CC(C)C)N(C)C(=O)[C@@H](C)OC(=O)[C@H](CC(C)C)N(C)C(=O)[C@@H](Cc3ccc(Cn4nccc4C)cc3)OC(=O)[C@H](CC(C)C)N(C)C(=O)[C@@H](C)OC(=O)[C@H](CC(C)C)N(C)C2=O)cc1 [Example 1b-160, (3S,6R,9S,12R,15S,18R,21S,24R)-3,9,15,21-tetraisobutyl-4,6,10,16,18,22-hexamethyl-12,24-bis(4-((5-methyl-1H-pyrazol-1-yl)methyl)benzyl)-1,7,13,19-tetraoxa-4,10,16,22-tetraazacyclotetracosan-2,5,8,11,14,17,20,23-octaone]	0.0001 to 0.001	≤ 1	
COCc1ccnn1Cc1ccc(C[C@H]2OC(=O)[C@H](CC(C)C)N(C)C(=O)[C@@H](C)OC(=O)[C@H](CC(C)C)N(C)C(=O)[C@@H](Cc3ccc(Cn4nccc4COC)cc3)OC(=O)[C@H](CC(C)C)N(C)C(=O)[C@@H](C)OC(=O)[C@H](CC(C)C)N(C)C2=O)cc1 [Example 1b-166, (3S,6R,9S,12R,15S,18R,21S,24R)-3,9,15,21-tetraisobutyl-6,18-bis(4-((5-(methoxymethyl)-1H-pyrazol-1-yl)methyl)benzyl)-4,10,12,16,22,24-hexamethyl-1,7,13,19-tetraoxa-4,10,16,22-tetraazacyclotetracosan-2,5,8,11,14,17,20,23-octaone]	≤ 0.0001	1 to 10	
CC(C)C[C@H]1C(=O)O[C@H](Cc2ccc(CN3CCOc4ncccc43)cc2)C(=O)N(C)[C@@H](CC(C)C)C(=O)O[C@H](C)C(=O)N(C)[C@@H](CC(C)C)C(=O)O[C@H](Cc2ccccc2)C(=O)N(C)[C@@H](CC(C)C)C(=O)O[C@H](C)C(=O)N1C [Example 10-38, (3S,6R,9S,12R,15S,18R,21S,24R)-6-benzyl-18-[[4-(2,3-dihydropyrido[2,3-b][1,4]oxazin-1-ylmethyl)phenyl]methyl]-3,9,15,21-tetraisobutyl-4,10,12,16,22,24-hexamethyl-1,7,13,19-tetraoxa-4, 10,16,22-tetrazacyclotetracosane-2,5,8,11,14,17,20,23-octaone]	0.0001 to 0.001		0.001 to 0.01

From patent US11331369B2, “Endoparasitic depsipeptides” (Zoetis Services LLC, priority 2017, dated 2022)
